As usually defined, the EC50 is the concentration at which the effect is half-maximal.

In one test the target is T1, RORγ-LBD (Homo sapiens, UniProt P51449).
T1 construct: made in house; host or cells: SF9 cells (baculovirus); used as diluted lysate
T1 sequence (P51449 269-508 limits assumed): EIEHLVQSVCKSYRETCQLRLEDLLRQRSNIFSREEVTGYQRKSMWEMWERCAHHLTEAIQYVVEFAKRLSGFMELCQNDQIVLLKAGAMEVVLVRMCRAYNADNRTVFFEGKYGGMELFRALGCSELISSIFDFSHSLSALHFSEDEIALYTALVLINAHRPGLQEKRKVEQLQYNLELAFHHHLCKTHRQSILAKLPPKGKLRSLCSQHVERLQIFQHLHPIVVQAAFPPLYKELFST
In words: RORγ-Ligand Binding Domain (LBD) TR-FRET Assay.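 On TR-FRET Assay Max Response: 665/615 nm signal ratio set to 100 without ursolic acid or test compound.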 The class given is biochemical. To be noted: for TR-FRET Assay Max Response: maximum response. In outline:
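SF9 lysate containing His-RORγ-LBD, ~3 nM final; coactivator peptide biotin-SRC1 LXXLL, 200 nM final; ursolic acid 2 μM final; DMSO 1% final; Tris pH 7.0 buffer with KCl, EDTA, DTT, BSA. TR-FRET format.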

Another test addresses T2, Gal4-RORγ-LBD (Homo sapiens, UniProt P51449).
T2 construct: expressed in transfected cells
T2 sequence (P51449 269-508 limits assumed): T1 sequence (P51449 269-508 limits assumed)
In words: Gal4-RORγ Luciferase Reporter Assay in HEK-293T Cells. To be noted: HEK-293 cells; for Gal4-RORγ Assay Max Response: maximum response. The class given is cell-based. In outline: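 HEK-293 cells were co-transfected with Gal4-RORγ-LBD and a Gal4-luciferase reporter, then exposed overnight at 37 °C to compounds with […] ursolic acid present (0.2% DMSO). Luminescence was read with One-Glo after 10 min at RT, untreated signal was set as 100, and Max Response was taken as the upper plateau of a 4-parameter logistic fit.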
Background: Reporter assays use an easily measured gene product as a stand-in for the process of interest.

Where [1] appears, read: with 2 μM ursolic acid (RORγ antagonist), highest test concentration 10 μM.
The mark [2] stands for this setting: ursolic acid present, luciferase readout.
The mark [3] stands for this setting: luciferase reporter, with ursolic acid.
Where [4] appears, read: luciferase reporter, in presence of ursolic acid.

The structures appear in SMILES notation.

With `CC/C(=C\c1ccc2c(c1)N(S(=O)(=O)c1cccc(C(F)(F)F)c1)C[C@H](CCC(=O)O)O2)C(C)C` [Example 191G, (S,E)-3-(6-(2-ethyl-3-methylbut-1-en-1-yl)-4-((3-(trifluoromethyl)-phenyl)sulfonyl)-3,4-dihydro-2H-benzo[b][1,4]oxazin-2-yl)propanoic acid], the EC50 on RORγ-LBD (setting [1]) and at Gal4-RORγ-LBD (setting [2]) was less than 500 nM in each case.
As to `CCOc1nn(CC)cc1S(=O)(=O)N1C[C@H](CCC(=O)O)Oc2ccc(/C=C/c3c(F)cccc3F)cc21` [Example 89AE, (S,E)-3-(6-(2,6-difluorostyryl)-4-((3-ethoxy-1-ethyl-1H-pyrazol-4-yl)sulfonyl)-3,4-dihydro-2H-benzo[b][1,4]-oxazin-2-yl)propanoic acid], the EC50 on RORγ-LBD (RORγ-LBD TR-FRET) was less than 500 nM; on Gal4-RORγ-LBD (setting [3]), 500 to 5000 nM.
Regarding `CC/C(C)=C\c1ccc2c(c1)N(S(=O)(=O)c1cc(C(F)(F)F)cnc1OCCO)C[C@H](CCC(=O)O)O2` [Example 191D, (S,Z)-3-(4-((2-(2-hydroxyethoxy)-5-(trifluoromethyl)pyridin-3-yl)sulfonyl)-6-(2-methylbut-1-en-1-yl)-3,4-dihydro-2H-benzo[b][1,4]oxazin-2-yl)propanoic acid], the EC50 is less than 500 nM at RORγ-LBD (RORγ-LBD TR-FRET assay) and more than 10000 nM on Gal4-RORγ-LBD (setting [4]). For the same molecule, on RORγ-LBD (RORγ-LBD TR-FRET assay), the “TR-FRET Assay Max Response” value is reported as “** (a value in the range of greater than 90 to 150)”.
On to `O=S(=O)(c1cccc(C(F)(F)F)c1)N1C[C@H](CO)Oc2ccc(Oc3ccccc3Cl)cc21` [Example 131, (R)-(6-(2-Chlorophenoxy)-4-((3-(trifluoromethyl)phenyl)sulfonyl)-3,4-dihydro-2H-benzo[b][1,4]oxazin-2-yl)methanol], for which, at RORγ-LBD (RORγ-LBD TR-FRET assay), the EC50 was less than 500 nM and the “TR-FRET Assay Max Response” value is reported as “*** (a value in the range of greater than 150 to 200)”. In addition, at Gal4-RORγ-LBD (setting [4]), the EC50 is less than 500 nM and the “Gal4-RORγ Assay Max Response” value is “** (a value in the range of greater than 90 to 150)”.
As to `O=C(O)CC[C@H]1CN(S(=O)(=O)c2cccc(C(F)(F)F)c2)c2cc(C=C3CCCCC3)ccc2O1` [Example 91, (S)-3-(6-(Cyclohexylidenemethyl)-4-((3-(trifluoromethyl)phenyl)sulfonyl)-3,4-dihydro-2H-benzo[b][1,4]oxazin-2-yl)propanoic acid], the EC50 at RORγ-LBD (RORγ-LBD TR-FRET) is less than 500 nM; on Gal4-RORγ-LBD (setting [3]), 500 to 5000 nM.
For `O=C(O)CC[C@H]1CN(S(=O)(=O)c2ccc(F)c(OC(F)F)c2)c2cc(/C=C/c3c(F)cccc3Cl)ccc2O1` [Example 89CV, (S,E)-3-(6-(2-chloro-6-fluorostyryl)-4-((3-(difluoromethoxy)-4-fluorophenyl)-sulfonyl)-3,4-dihydro-2H-benzo[b][1,4]oxazin-2-yl)propanoic acid], in that order: less than 500 nM and less than 500 nM.
In the case of `CC(C)Oc1ncc(C(F)(F)F)cc1S(=O)(=O)N1C[C@H](CCC(=O)O)Oc2ccc(/C=C/c3c(F)cccc3Cl)cc21` [Example 89FK, (S,E)-3-(6-(2-chloro-6-fluorostyryl)-4-((2-isopropoxy-5-(trifluoromethyl)pyridin-3-yl)sulfonyl)-3,4-dihydro-2H-benzo[b][1,4]oxazin-2-yl)propanoic acid], the EC50 at RORγ-LBD (RORγ-LBD TR-FRET) was less than 500 nM; at Gal4-RORγ-LBD (setting [3]) it was more than 10000 nM.
As to `CCn1cc(S(=O)(=O)N2C[C@H](CCC(=O)O)Oc3ccc(/C=C/c4c(Cl)cccc4C(F)(F)F)cc32)c(OCCO)n1` [Example 89EA, (S,E)-3-(6-(2-chloro-6-(trifluoromethyl)styryl)-4-((1-ethyl-3-(2-hydroxyethoxy)-1H-pyrazol-4-yl)sulfonyl)-3,4-dihydro-2H-benzo[b][1,4]oxazin-2-yl)propanoic acid], the EC50 at RORγ-LBD (RORγ-LBD TR-FRET) and on Gal4-RORγ-LBD (setting [3]) was less than 500 nM in each case.
As for `CCOC(=O)[C@@H]1Cc2ccc(OCc3c(F)cccc3Cl)cc2N(S(=O)(=O)c2ccc(F)c(OC)c2)[C@@H]1C`, the EC50 at RORγ-LBD (setting [1]) was less than 500 nM; at Gal4-RORγ-LBD (setting [2]), 500 to 5000 nM.
On to `C/C(=C\c1ccc2c(c1)N(S(=O)(=O)c1cccc(C(F)(F)F)c1)C[C@H]([C@@H](C)O)O2)c1c(F)cccc1Cl` [Example 98, (R)-1-((R)-6-((E)-2-(2-Chloro-6-fluorophenyl)prop-1-en-1-yl)-4-((3-(trifluoromethyl)phenyl)sulfonyl)-3,4-dihydro-2H-benzo[b][1,4]oxazin-2-yl)ethan-1-ol], for which the EC50 at RORγ-LBD (RORγ-LBD TR-FRET) and at Gal4-RORγ-LBD (setting [3]) was less than 500 nM in each case.
For `C/C(=C\c1ccc2c(c1)C(S(=O)(=O)c1cccc(C(F)(F)F)c1)CC(CCC(=O)O)O2)c1c(F)cccc1Cl` (centres unmarked) [Example 186I, (E)-3-(6-(2-(2-chloro-6-fluorophenyl)prop-1-en-1-yl)-4-((3-(trifluoromethyl)phenyl)-sulfonyl)chroman-2-yl)propanoic acid], at RORγ-LBD (RORγ-LBD TR-FRET assay), the EC50 was less than 500 nM and the “TR-FRET Assay Max Response” value was “** (a value in the range of greater than 90 to 150)”. Also, at Gal4-RORγ-LBD (setting [4]), the EC50 was less than 500 nM and the “Gal4-RORγ Assay Max Response” value was “** (a value in the range of greater than 90 to 150)”.
For `CCOc1nn(CC)cc1S(=O)(=O)N1C[C@H](CCC(=O)OC)Oc2ccc(/C=C/c3cccc(OC)n3)cc21` [Example 89T, (S,E)-methyl 3-(4-((3-ethoxy-1-ethyl-1H-pyrazol-4-yl)-sulfonyl)-6-(2-(6-methoxypyridin-2-yl)vinyl)-3,4-dihydro-2H-benzo[b][1,4]-oxazin-2-yl)propanoate], the EC50 at RORγ-LBD (RORγ-LBD TR-FRET) and on Gal4-RORγ-LBD (setting [3]) was more than 10000 nM throughout.
For the molecule `CC(=O)NCC[C@H]1CN(S(=O)(=O)c2cccc(C(F)(F)F)c2)c2cc(/C=C(\C)c3c(F)cccc3Cl)ccc2O1` [Example 112, (S,E)-N-(2-(6-(2-(2-Chloro-6-fluorophenyl)prop-1-en-1-yl)-4-((3-(trifluoromethyl)phenyl)sulfonyl)-3,4-dihydro-2H-benzo[b][1,4]oxazin-2-yl)ethyl)acetamide], on RORγ-LBD (RORγ-LBD TR-FRET assay), the concentration for a half-maximal effect (EC50) is less than 500 nM and the “TR-FRET Assay Max Response” value is given as “*** (a value in the range of greater than 150 to 200)”. Also, at Gal4-RORγ-LBD (setting [4]), the EC50 was less than 500 nM and the “Gal4-RORγ Assay Max Response” value is listed as “** (a value in the range of greater than 90 to 150)”.
Take `COC(=O)CC[C@H]1CN(S(=O)(=O)c2cccc(OC(F)F)c2)c2cc(/C=C/c3ccc(C)cc3)ccc2O1` [Example 89BF, (S,E)-methyl 3-(4-((3-(difluoromethoxy)phenyl)sulfonyl)-6-(4-methylstyryl)-3,4-dihydro-2H-benzo[b][1,4]oxazin-2-yl)propanoate]: the EC50 on RORγ-LBD (RORγ-LBD TR-FRET) was 500 to 5000 nM; at Gal4-RORγ-LBD (setting [3]), more than 10000 nM.
For `O=C(O)CC[C@H]1CN(S(=O)(=O)c2cc(C(F)(F)F)cnc2OCCO)c2cc(/C=C/c3c(Cl)cccc3C(F)F)ccc2O1` [Example 89EM, (S,E)-3-(6-(2-chloro-6-(difluoromethyl)styryl)-4-((2-(2-hydroxyethoxy)-5-(trifluoromethyl)pyridin-3-yl)sulfonyl)-3,4-dihydro-2H-benzo[b][1,4]oxazin-2-yl)propanoic acid], in that order: less than 500 nM and less than 500 nM.
As for `CC(=O)N[C@H]1Cc2ccc(/C=C(\C)c3c(F)cccc3Cl)cc2N(S(=O)(=O)c2cccc(C(F)(F)F)c2)C1` [Example 167, (S,E)-N-(7-(2-(2-chloro-6-fluorophenyl)prop-1-en-1-yl)-1-((3-(trifluoromethyl)phenyl)sulfonyl)-1,2,3,4-tetrahydroquinolin-3-yl)acetamide], at RORγ-LBD (RORγ-LBD TR-FRET assay), the EC50 was less than 500 nM and the “TR-FRET Assay Max Response” value is “*** (a value in the range of greater than 150 to 200)”. At Gal4-RORγ-LBD (setting [4]), the EC50 lay within 500 to 5000 nM and the “Gal4-RORγ Assay Max Response” value is listed as “** (a value in the range of greater than 90 to 150)”.
